# Data taken from paper PMC6084503, “Pyrrolo[3,2-c]pyridine derivatives with potential inhibitory effect against FMS kinase: in vitro biological studies” (Journal of Enzyme Inhibition and Medicinal Chemistry, 2018).
# Legend:
# Format in all cases: biochemical
# Details in all cases: single-dose concentration of 1 μM
# [1] = target: T1, MLK1 (Homo sapiens, UniProt P80192); assay: Kinase HotSpot 40-kinase panel
# T1 construct: purchased Reaction Biology Corp. (Kinase HotSpot)
# Description: (§1) Reaction Biology Corp. Kinase HotSpot^SM service [http://www.reactionbiology.com] was utilised for screening of the target compounds as per the protocol reported in the literature.
# (§2) Compound 1r was tested against a panel of 40 kinases including FMS. […] Its inhibition percentages against FLT3 (D835Y) and c-MET kinases were 42% and 40%, respectively. So its IC50 values against both of them will be in micromolar scale. […] The inhibition percentages exerted by compound 1r against the other 37 tested kinases were less than 28%.
# [2] = target: T2, c-MET (Homo sapiens, UniProt P08581); assay: Kinase HotSpot 40-kinase panel
# T2 construct: purchased Reaction Biology Corp. (Kinase HotSpot)
# Description: as §1, §2
# [3] = target: T3, CDK5/p25 (Homo sapiens, UniProt Q00535); assay: Kinase HotSpot 40-kinase panel
# T3 construct: purchased Reaction Biology Corp. (Kinase HotSpot)
# Description: as §1, §2
# [4] = target: T4, PDK1 (Homo sapiens, UniProt O15530); assay: Kinase HotSpot 40-kinase panel
# T4 construct: purchased Reaction Biology Corp. (Kinase HotSpot)
# Description: as §1, §2
# [5] = target: T5, EPHA1 (Homo sapiens, UniProt P21709); assay: Kinase HotSpot 40-kinase panel
# T5 construct: purchased Reaction Biology Corp. (Kinase HotSpot)
# Description: as §1, §2
# [6] = target: T6, FGFR1 (Homo sapiens, UniProt P11362); assay: Kinase HotSpot 40-kinase panel
# T6 construct: purchased Reaction Biology Corp. (Kinase HotSpot)
# Description: as §1, §2
# [7] = target: T7, ALK (Homo sapiens, UniProt Q9UM73); assay: Kinase HotSpot 40-kinase panel
# T7 construct: purchased Reaction Biology Corp. (Kinase HotSpot)
# Description: as §1, §2
# [8] = target: T8, DMPK (Homo sapiens, UniProt Q09013); assay: Kinase HotSpot 40-kinase panel
# T8 construct: purchased Reaction Biology Corp. (Kinase HotSpot)
# Description: as §1, §2
# [9] = target: T9, c-SRC (Homo sapiens, UniProt P12931); assay: Kinase HotSpot 40-kinase panel
# T9 construct: purchased Reaction Biology Corp. (Kinase HotSpot)
# Description: as §1, §2
# [10] = target: T10, ABL1 (Homo sapiens, UniProt P00519); assay: Kinase HotSpot 40-kinase panel
# T10 construct: purchased Reaction Biology Corp. (Kinase HotSpot)
# Description: as §1, §2
# [11] = target: T11, IGF-1R (Homo sapiens, UniProt P08069); assay: Kinase HotSpot 40-kinase panel
# T11 construct: purchased Reaction Biology Corp. (Kinase HotSpot)
# Description: as §1, §2
# [12] = target: T12, LCK (Homo sapiens, UniProt P06239); assay: Kinase HotSpot 40-kinase panel
# T12 construct: purchased Reaction Biology Corp. (Kinase HotSpot)
# Description: as §1, §2
# [13] = target: T13, PLK1 (Homo sapiens, UniProt P53350); assay: Kinase HotSpot 40-kinase panel
# T13 construct: purchased Reaction Biology Corp. (Kinase HotSpot)
# Description: as §1, §2
# [14] = target: T14, SAPK2a (Homo sapiens, UniProt Q16539); assay: Kinase HotSpot 40-kinase panel
# T14 construct: purchased Reaction Biology Corp. (Kinase HotSpot)
# Description: as §1, §2
# [15] = target: T15, PIM1 (Homo sapiens, UniProt P11309); assay: Kinase HotSpot 40-kinase panel
# T15 construct: purchased Reaction Biology Corp. (Kinase HotSpot)
# Description: as §1, §2
# [16] = target: T16, MEK1 (Homo sapiens, UniProt Q02750); assay: Kinase HotSpot 40-kinase panel
# T16 construct: purchased Reaction Biology Corp. (Kinase HotSpot)
# Description: as §1, §2
# [17] = target: T17, TEC (activated) (Homo sapiens, UniProt P42680); assay: Kinase HotSpot 40-kinase panel
# T17 construct: purchased Reaction Biology Corp. (Kinase HotSpot)
# Description: as §1, §2
# [18] = target: T18, GSK3β (Homo sapiens, UniProt P49841); assay: Kinase HotSpot 40-kinase panel
# T18 construct: purchased Reaction Biology Corp. (Kinase HotSpot)
# Description: as §1, §2
# [19] = target: T19, mTOR (Homo sapiens, UniProt P42345); assay: Kinase HotSpot 40-kinase panel
# T19 construct: purchased Reaction Biology Corp. (Kinase HotSpot)
# Description: as §1, §2
# [20] = target: T20, HIPK2 (Homo sapiens, UniProt Q9H2X6); assay: Kinase HotSpot 40-kinase panel
# T20 construct: purchased Reaction Biology Corp. (Kinase HotSpot)
# Description: as §1, §2
# [21] = target: T21, P70S6K (Homo sapiens, UniProt P23443); assay: Kinase HotSpot 40-kinase panel
# T21 construct: purchased Reaction Biology Corp. (Kinase HotSpot)
# Description: as §1, §2
# [22] = target: T22, IR (Homo sapiens, UniProt P06213); assay: Kinase HotSpot 40-kinase panel
# T22 construct: purchased Reaction Biology Corp. (Kinase HotSpot)
# Description: as §1, §2
# [23] = target: T23, RET (Homo sapiens, UniProt P07949); assay: Kinase HotSpot 40-kinase panel
# T23 construct: purchased Reaction Biology Corp. (Kinase HotSpot)
# Description: as §1, §2
# [24] = target: T24, CDK2/cyclinE (Homo sapiens, UniProt P24941); assay: Kinase HotSpot 40-kinase panel
# T24 construct: purchased Reaction Biology Corp. (Kinase HotSpot)
# Description: as §1, §2
# [25] = target: T25, KDR (Homo sapiens, UniProt P35968); assay: Kinase HotSpot 40-kinase panel
# T25 construct: purchased Reaction Biology Corp. (Kinase HotSpot)
# Description: as §1, §2
# [26] = target: T26, IKKβ (Homo sapiens, UniProt O14920); assay: Kinase HotSpot 40-kinase panel
# T26 construct: purchased Reaction Biology Corp. (Kinase HotSpot)
# Description: as §1, §2
# [27] = target: T27, CHK1 (Homo sapiens, UniProt O14757); assay: Kinase HotSpot 40-kinase panel
# T27 construct: purchased Reaction Biology Corp. (Kinase HotSpot)
# Description: as §1, §2
# [28] = target: T28, FYN (Homo sapiens, UniProt P06241); assay: Kinase HotSpot 40-kinase panel
# T28 construct: purchased Reaction Biology Corp. (Kinase HotSpot)
# Description: as §1, §2
# [29] = target: T29, CaMKI (Homo sapiens, UniProt Q14012); assay: Kinase HotSpot 40-kinase panel
# T29 construct: purchased Reaction Biology Corp. (Kinase HotSpot)
# Description: as §1, §2
# [30] = target: T30, PAK2 (Homo sapiens, UniProt Q13177); assay: Kinase HotSpot 40-kinase panel
# T30 construct: purchased Reaction Biology Corp. (Kinase HotSpot)
# Description: as §1, §2
# [31] = target: T31, RSK1 (Homo sapiens, UniProt Q15418); assay: Kinase HotSpot 40-kinase panel
# T31 construct: purchased Reaction Biology Corp. (Kinase HotSpot)
# Description: as §1, §2
# [32] = target: T32, EGFR (T790M) (Homo sapiens, UniProt P00533, T790M); assay: Kinase HotSpot 40-kinase panel
# T32 construct: purchased Reaction Biology Corp. (Kinase HotSpot)
# Description: as §1, §2
# [33] = target: T33, JNK1α1 (Homo sapiens, UniProt P45983); assay: Kinase HotSpot 40-kinase panel
# T33 construct: purchased Reaction Biology Corp. (Kinase HotSpot)
# Description: as §1, §2
# [34] = target: T34, SYK (Homo sapiens, UniProt P43405); assay: Kinase HotSpot 40-kinase panel
# T34 construct: purchased Reaction Biology Corp. (Kinase HotSpot)
# Description: as §1, §2
# [35] = target: T35, ROS/ROS1 (Homo sapiens, UniProt P08922); assay: Kinase HotSpot 40-kinase panel
# T35 construct: purchased Reaction Biology Corp. (Kinase HotSpot)
# Description: as §1, §2
# [36] = target: T36, BTK (Homo sapiens, UniProt Q06187); assay: Kinase HotSpot 40-kinase panel
# T36 construct: purchased Reaction Biology Corp. (Kinase HotSpot)
# Description: as §1, §2
# [37] = target: T37, ROCK1 (Homo sapiens, UniProt Q13464); assay: Kinase HotSpot 40-kinase panel
# T37 construct: purchased Reaction Biology Corp. (Kinase HotSpot)
# Description: as §1, §2
# [38] = target: T38, Aurora A (Homo sapiens, UniProt O14965); assay: Kinase HotSpot 40-kinase panel
# T38 construct: purchased Reaction Biology Corp. (Kinase HotSpot)
# Description: as §1, §2
# [39] = target: T39, FLT3 (D835Y) (Homo sapiens, UniProt P36888, D835Y); assay: Kinase HotSpot 40-kinase panel
# T39 construct: purchased Reaction Biology Corp. (Kinase HotSpot)
# Description: as §1, §2
# [40] = target: T40, FMS kinase (Homo sapiens, UniProt P07333); assay: Kinase HotSpot cell-free enzyme assay, FMS kinase
# T40 construct: purchased Reaction Biology Corp
# T10 sequence (P00519 whole entry): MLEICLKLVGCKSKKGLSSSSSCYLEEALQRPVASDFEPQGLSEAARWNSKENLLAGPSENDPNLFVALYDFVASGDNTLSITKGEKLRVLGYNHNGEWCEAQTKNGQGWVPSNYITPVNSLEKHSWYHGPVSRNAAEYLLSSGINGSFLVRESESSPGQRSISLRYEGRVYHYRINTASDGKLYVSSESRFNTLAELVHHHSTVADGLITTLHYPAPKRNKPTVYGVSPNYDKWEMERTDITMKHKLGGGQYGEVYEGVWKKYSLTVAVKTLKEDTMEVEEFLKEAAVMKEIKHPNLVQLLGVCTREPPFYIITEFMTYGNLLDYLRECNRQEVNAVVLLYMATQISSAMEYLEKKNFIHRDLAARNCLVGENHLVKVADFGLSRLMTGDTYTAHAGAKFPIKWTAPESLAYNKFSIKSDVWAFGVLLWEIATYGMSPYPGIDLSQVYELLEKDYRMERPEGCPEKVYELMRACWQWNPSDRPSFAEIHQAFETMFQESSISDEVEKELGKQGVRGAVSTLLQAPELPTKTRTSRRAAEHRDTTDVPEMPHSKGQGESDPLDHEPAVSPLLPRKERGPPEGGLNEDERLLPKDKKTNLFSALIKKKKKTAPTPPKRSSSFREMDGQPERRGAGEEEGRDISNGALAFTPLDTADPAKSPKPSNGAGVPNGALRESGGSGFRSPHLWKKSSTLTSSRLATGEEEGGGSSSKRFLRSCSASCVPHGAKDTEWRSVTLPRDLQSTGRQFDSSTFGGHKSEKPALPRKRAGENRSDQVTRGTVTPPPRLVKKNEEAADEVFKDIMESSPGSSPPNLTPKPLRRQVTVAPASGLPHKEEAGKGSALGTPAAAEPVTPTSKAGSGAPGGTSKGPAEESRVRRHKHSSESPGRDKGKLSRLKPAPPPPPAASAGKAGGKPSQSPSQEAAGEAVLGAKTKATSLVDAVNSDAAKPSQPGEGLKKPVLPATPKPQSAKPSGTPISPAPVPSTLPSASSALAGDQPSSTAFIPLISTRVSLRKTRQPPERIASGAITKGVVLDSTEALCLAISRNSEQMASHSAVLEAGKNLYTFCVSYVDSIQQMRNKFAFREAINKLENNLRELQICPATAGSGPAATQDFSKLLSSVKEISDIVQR
# T14 sequence (Q16539 whole entry): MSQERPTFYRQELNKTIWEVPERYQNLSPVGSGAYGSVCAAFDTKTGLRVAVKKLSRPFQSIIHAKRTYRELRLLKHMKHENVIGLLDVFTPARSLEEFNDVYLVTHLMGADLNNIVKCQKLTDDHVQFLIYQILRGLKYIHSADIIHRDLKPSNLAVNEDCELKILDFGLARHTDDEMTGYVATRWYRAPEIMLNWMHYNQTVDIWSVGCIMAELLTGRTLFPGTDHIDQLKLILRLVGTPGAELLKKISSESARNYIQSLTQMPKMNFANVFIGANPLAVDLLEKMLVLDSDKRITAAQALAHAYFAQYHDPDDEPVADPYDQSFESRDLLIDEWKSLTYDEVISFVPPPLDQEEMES
# T20 sequence (Q9H2X6 whole entry): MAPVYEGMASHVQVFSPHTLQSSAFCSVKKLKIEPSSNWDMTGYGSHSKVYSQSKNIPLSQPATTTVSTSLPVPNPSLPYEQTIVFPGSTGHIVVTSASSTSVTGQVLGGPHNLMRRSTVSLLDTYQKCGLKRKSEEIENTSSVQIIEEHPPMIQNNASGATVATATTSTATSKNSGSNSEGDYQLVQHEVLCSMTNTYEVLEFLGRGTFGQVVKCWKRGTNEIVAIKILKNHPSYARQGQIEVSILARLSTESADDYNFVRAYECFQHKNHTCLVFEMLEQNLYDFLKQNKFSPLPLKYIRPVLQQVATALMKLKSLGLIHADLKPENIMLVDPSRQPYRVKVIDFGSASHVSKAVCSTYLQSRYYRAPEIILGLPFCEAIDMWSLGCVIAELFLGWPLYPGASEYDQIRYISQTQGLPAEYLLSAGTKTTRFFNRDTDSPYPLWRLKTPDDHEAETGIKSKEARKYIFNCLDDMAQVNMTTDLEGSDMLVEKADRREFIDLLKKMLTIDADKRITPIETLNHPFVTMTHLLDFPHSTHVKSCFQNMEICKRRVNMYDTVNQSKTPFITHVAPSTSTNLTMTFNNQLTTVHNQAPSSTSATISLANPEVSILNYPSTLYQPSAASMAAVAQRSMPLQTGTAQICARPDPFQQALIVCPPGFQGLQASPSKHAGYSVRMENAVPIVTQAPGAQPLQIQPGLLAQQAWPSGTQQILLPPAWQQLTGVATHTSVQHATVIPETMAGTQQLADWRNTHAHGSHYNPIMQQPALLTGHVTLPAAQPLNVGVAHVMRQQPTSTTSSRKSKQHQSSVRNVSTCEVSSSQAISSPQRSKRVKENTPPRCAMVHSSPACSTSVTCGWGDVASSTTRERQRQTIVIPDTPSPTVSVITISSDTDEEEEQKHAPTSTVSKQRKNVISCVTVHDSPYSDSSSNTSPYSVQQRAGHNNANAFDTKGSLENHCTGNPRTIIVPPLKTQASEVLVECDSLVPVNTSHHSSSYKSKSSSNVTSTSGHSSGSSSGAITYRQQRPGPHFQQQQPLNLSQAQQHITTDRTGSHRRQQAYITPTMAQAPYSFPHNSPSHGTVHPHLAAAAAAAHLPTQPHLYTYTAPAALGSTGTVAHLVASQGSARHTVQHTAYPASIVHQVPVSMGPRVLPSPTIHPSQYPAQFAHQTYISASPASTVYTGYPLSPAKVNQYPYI
# T30 sequence (Q13177 whole entry): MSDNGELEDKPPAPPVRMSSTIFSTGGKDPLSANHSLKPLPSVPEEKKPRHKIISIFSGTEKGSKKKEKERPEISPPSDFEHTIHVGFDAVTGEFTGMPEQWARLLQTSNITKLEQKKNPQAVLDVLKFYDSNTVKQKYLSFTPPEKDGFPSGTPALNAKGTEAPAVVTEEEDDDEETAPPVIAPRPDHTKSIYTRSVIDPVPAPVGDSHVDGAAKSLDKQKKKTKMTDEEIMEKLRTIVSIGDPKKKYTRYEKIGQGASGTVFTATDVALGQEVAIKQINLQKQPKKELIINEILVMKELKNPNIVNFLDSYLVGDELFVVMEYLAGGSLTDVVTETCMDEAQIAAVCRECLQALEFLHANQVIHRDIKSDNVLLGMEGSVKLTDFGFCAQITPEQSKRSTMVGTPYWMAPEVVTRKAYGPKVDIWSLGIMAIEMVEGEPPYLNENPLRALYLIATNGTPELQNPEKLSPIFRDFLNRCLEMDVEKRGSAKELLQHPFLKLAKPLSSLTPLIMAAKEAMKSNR
# T17 sequence (P42680 whole entry): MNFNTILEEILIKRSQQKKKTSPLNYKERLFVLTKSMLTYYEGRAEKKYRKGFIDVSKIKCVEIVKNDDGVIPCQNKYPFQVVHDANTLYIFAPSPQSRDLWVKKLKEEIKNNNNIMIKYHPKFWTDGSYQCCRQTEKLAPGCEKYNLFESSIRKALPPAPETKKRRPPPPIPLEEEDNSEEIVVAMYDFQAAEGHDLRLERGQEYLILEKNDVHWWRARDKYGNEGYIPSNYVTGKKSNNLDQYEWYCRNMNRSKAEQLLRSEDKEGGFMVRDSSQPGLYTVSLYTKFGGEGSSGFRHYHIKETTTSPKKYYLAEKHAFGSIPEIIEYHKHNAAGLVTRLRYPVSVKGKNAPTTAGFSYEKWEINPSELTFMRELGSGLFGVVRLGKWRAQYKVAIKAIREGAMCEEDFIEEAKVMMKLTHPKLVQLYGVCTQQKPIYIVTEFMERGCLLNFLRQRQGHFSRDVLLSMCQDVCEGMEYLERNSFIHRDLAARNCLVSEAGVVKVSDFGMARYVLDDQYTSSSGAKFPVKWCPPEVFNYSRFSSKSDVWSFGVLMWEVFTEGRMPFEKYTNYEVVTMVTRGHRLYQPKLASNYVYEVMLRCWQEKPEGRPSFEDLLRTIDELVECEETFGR
# T12 sequence (P06239 whole entry): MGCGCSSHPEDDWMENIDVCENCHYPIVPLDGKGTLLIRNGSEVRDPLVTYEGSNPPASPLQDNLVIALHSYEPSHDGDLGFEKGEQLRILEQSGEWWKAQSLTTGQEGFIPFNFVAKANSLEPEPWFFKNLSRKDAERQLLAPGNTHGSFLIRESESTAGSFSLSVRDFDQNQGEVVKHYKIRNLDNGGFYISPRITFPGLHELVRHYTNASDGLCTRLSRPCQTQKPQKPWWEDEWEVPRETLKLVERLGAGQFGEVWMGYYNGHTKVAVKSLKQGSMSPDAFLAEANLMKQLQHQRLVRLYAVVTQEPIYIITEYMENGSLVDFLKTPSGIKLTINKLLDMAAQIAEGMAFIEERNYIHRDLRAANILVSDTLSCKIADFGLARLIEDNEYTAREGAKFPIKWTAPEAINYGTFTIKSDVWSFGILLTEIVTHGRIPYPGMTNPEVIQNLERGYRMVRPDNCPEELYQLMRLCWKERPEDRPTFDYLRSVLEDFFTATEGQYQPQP
# T15 sequence (P11309 whole entry): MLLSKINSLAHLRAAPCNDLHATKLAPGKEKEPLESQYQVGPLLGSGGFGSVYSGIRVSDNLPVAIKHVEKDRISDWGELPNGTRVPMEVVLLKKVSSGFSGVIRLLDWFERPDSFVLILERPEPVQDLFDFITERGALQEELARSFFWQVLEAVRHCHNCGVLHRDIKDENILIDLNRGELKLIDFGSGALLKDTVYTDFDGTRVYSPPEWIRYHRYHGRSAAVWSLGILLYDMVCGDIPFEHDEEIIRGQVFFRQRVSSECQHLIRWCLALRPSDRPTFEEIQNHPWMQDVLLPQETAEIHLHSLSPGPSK
# T29 sequence (Q14012 whole entry): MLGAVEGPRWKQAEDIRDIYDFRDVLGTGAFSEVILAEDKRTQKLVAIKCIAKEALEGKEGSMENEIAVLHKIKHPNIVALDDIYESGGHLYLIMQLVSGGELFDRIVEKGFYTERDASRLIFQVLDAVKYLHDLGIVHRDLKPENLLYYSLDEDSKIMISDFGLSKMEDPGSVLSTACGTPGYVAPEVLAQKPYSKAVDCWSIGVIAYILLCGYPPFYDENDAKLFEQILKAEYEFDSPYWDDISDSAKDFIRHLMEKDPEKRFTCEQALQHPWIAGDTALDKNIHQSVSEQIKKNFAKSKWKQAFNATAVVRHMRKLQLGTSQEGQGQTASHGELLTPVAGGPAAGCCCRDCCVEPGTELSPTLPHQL
compound,measurement,setting,value
"O=C(Nc1cccc(-n2ccc3c(NC(=O)c4ccccc4)nccc32)c1)c1ccc(N2CCOCC2)c(C(F)(F)F)c1 [KIST101029, reference compound]",inhibition at 1 µM,[1],-1%
same,inhibition at 1 µM,[2],-16%
same,inhibition at 1 µM,[3],8%
same,inhibition at 1 µM,[4],-1%
same,inhibition at 1 µM,[5],9%
same,inhibition at 1 µM,[6],6%
same,inhibition at 1 µM,[7],11%
same,inhibition at 1 µM,[8],-18%
same,inhibition at 1 µM,[9],10%
same,inhibition at 1 µM,[10],41%
same,inhibition at 1 µM,[11],10%
same,inhibition at 1 µM,[12],33%
same,inhibition at 1 µM,[13],4%
same,inhibition at 1 µM,[14],25%
same,inhibition at 1 µM,[15],10%
same,inhibition at 1 µM,[16],12%
same,inhibition at 1 µM,[17],14%
same,inhibition at 1 µM,[18],4%
same,inhibition at 1 µM,[19],-10%
same,inhibition at 1 µM,[20],9%
same,inhibition at 1 µM,[21],7%
same,inhibition at 1 µM,[22],2%
same,inhibition at 1 µM,[23],57%
same,inhibition at 1 µM,[24],-12%
same,inhibition at 1 µM,[25],71%
same,inhibition at 1 µM,[26],23%
same,inhibition at 1 µM,[27],-8%
same,inhibition at 1 µM,[28],44%
same,inhibition at 1 µM,[29],-1%
same,inhibition at 1 µM,[30],2%
same,inhibition at 1 µM,[31],8%
same,inhibition at 1 µM,[32],1%
same,inhibition at 1 µM,[33],-1%
same,inhibition at 1 µM,[34],6%
same,inhibition at 1 µM,[35],19%
same,inhibition at 1 µM,[36],7%
same,inhibition at 1 µM,[37],3%
same,inhibition at 1 µM,[38],21%
same,inhibition at 1 µM,[39],16%
same,inhibition at 1 µM,[40],90%
Nc1nccc2c1ccn2-c1cccc(NC(=O)c2ccc(N3CCOCC3)c(C(F)(F)F)c2)c1 [Compound 1r],% Inhibition,[1],−4%
same,% Inhibition,[2],40%
same,% Inhibition,[3],−5%
same,% Inhibition,[4],−7%
same,% Inhibition,[5],−10%
same,% Inhibition,[6],−3%
same,% Inhibition,[7],0%
same,% Inhibition,[8],−1%
same,% Inhibition,[9],−4%
same,% Inhibition,[10],15%
same,% Inhibition,[11],4%
same,% Inhibition,[12],−7%
same,% Inhibition,[13],7%
same,% Inhibition,[14],−1%
same,% Inhibition,[15],−6%
same,% Inhibition,[16],−7%
same,% Inhibition,[17],10%
same,% Inhibition,[18],−3%
same,% Inhibition,[19],−2%
same,% Inhibition,[20],6%
same,% Inhibition,[21],−8%
same,% Inhibition,[22],5%
same,% Inhibition,[23],27%
same,% Inhibition,[24],−1%
same,% Inhibition,[25],1%
same,% Inhibition,[26],1%
same,% Inhibition,[27],−6%
same,% Inhibition,[28],14%
same,% Inhibition,[29],−23%
same,% Inhibition,[30],−9%
same,% Inhibition,[31],−4%
same,% Inhibition,[32],4%
same,% Inhibition,[33],−5%
same,% Inhibition,[34],−5%
same,% Inhibition,[35],−4%
same,% Inhibition,[36],1%
same,% Inhibition,[37],2%
same,% Inhibition,[38],−2%
same,% Inhibition,[39],42%
same,% Inhibition,[40],81%
